Series [1] concerns the target T1, hM4Di (Homo sapiens, UniProt P08173, A203G/Y113C).
T1 sequence (P08173 1-479 Y113C/A203G): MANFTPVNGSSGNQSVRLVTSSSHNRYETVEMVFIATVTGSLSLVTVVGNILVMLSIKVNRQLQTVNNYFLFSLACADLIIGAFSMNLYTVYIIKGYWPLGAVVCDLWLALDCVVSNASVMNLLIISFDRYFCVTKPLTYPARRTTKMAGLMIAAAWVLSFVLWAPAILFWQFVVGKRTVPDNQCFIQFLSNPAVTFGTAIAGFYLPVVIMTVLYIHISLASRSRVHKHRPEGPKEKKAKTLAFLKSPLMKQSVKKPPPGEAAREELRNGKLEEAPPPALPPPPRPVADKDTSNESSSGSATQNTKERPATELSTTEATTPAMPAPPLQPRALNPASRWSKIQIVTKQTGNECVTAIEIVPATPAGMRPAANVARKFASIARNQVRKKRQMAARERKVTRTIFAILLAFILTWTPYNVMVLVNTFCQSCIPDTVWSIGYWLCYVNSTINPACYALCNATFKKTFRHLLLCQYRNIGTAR
The series can be described thus: whole-cell [3H]NMS competition binding.

For series [2], the system named is hM3Dq-expressing lateral hypothalamic vGAT neurons. The series can be described thus: recordings from lateral hypothalamic vGAT neurons. In kind it is cell-based.
For another series, the target named is D2 (Homo sapiens, UniProt P14416). Nature of the series: Gi1 BRET dissociation assay, antagonist mode. The format is cell-based. Particulars: human D2, HEK293T cells, vs quinpirole. How it is done:
(§1) Separate pcDNA plasmids containing the sequence for Gβ1, Gγ2-GFP^2, Gi1-Rluc8, and either human dopamine D2 receptor or histamine H4 receptor were cotransfected into HEK293T cells (in 10 cm plates) at 1.5 μg/construct using Transit-2020 (Mirus) at a ratio of 3 μL/μg Transit/DNA. The next day, cells were harvested and plated in DMEM containing 1% dFBS in polylysine-coated 96-well plates (Greiner) at 50 000 cells per well. Sixteen hours later, media was aspirated from each well, and cells were subsequently rinsed with 60 μL of assay buffer (20 mM HEPES, 1× Hanks Buffered Saline Solution, pH 7.4). Before drug treatment, 60 μL of fresh assay buffer was added to each well followed by 10 μL of 50 uM Coelenterazine 400a (Prolume). Luminescence and fluorescence were measured using an LB940 Mithras (Berthold technologies), and BRET was computed as the ratio of GFP^2 fluorescence to luciferase signal.
(§2) In the absence of C21 ([B] = 0), this equation becomes the standard four-parameter logistic equation for fitting agonist concentration–response data.
On the technique in general: In BRET a luciferase serves as donor, and the signal depends on an acceptor being close.

In series [3] the target is T2, human H4 histamine receptors (Homo sapiens, UniProt Q9H3N8).
T2 construct: expressed in transfected cells; host or cells: HEK293T, transient (pcDNA plasmids)
T2 sequence (Q9H3N8 whole entry): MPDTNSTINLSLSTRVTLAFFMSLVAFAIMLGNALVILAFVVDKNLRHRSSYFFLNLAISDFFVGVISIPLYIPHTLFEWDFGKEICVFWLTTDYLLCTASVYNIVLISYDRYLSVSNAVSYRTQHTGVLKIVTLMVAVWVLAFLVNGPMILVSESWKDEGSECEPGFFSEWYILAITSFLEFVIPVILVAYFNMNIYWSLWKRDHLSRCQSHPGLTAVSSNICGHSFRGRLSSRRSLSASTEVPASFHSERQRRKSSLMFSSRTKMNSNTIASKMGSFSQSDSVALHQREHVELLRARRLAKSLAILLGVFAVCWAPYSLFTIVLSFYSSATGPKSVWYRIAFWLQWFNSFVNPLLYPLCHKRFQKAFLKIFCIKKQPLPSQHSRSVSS
Nature of the series: Gi1 BRET dissociation assay, antagonist mode. The format is cell-based. Particulars: human H4, HEK293T cells, vs histamine. How it is done:
as §1, §2

Another series concerns the target T3, hM1Dq (Homo sapiens, UniProt P11229, A196G/Y106C).
T3 sequence (P11229 1-460 Y106C/A196G): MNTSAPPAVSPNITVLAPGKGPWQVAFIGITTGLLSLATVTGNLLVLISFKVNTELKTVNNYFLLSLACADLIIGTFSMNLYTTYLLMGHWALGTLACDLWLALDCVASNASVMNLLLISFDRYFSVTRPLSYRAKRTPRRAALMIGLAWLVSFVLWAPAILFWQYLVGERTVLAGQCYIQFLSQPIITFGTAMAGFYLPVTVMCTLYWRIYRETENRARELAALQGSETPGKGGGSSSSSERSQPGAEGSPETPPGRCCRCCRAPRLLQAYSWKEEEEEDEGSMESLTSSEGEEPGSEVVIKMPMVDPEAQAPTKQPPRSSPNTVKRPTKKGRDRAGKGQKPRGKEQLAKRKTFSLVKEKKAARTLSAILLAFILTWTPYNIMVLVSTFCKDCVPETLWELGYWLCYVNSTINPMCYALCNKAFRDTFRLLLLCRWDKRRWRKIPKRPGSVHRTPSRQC
The series can be described thus: whole-cell [3H]NMS competition binding.

Series [4] is described as follows: brain and plasma exposure after i.p. administration. In kind it is in vivo, mice.
Series [5] deals with T1, hM4Di. The series can be described thus: inhibition of isoproterenol-stimulated cAMP production. The format is cell-based. The arrangement: expressed in transfected cells. Particulars: inhibition of isoproterenol elevated cAMP, mean (±SEM). In general terms: cAMP levels reflect the balance of adenylyl cyclase and phosphodiesterase activity.
Where [6] appears, read: i.p. 0.1, 1 and 10 mg/kg, 30 min after administration.

SMILES strings stand for the structures. Values joined by “and” are separate entries in the source; they are usually repeats but may differ in a detail not shown here. Equal entries are not always repeated.

In general, Ki refers to the equilibrium dissociation constant of an inhibitor or competing ligand from its target. By EC50 is commonly meant the concentration needed to bring the measured effect to its halfway point. Read a high EC50 as a need for much substance.

D2, sequence (P14416 whole entry): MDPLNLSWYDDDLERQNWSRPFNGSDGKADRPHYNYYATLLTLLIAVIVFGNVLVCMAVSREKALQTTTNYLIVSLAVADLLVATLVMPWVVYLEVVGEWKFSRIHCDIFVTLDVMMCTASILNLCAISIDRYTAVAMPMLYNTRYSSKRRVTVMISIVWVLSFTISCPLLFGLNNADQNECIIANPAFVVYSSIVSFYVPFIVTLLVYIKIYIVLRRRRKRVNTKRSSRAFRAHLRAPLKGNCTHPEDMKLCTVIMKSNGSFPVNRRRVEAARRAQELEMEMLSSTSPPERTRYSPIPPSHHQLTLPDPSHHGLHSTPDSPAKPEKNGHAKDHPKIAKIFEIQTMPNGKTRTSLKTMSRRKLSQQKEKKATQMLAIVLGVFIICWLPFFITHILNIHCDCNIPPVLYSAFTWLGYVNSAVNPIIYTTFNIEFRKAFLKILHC

Take `c1ccc2c(c1)N=C(N1CCNCC1)c1ccccc1N2` [C21, 11-(1-piperazinyl)-5H-dibenzo[b,e][1,4]diazepine]: affinity on hM4Di [1] was put at a Ki of 178 nM. Moreover, the “higher binding affinity at hM4Di than at wildtype hM4” value on hM4Di [1] (hM4Di vs hM4) is recorded as above 10 fold. For the same compound, the depolarization of neurons result in series [2] is on record as “depolarization”. Further, at D2, the “antagonist activity, Gi-dissociation assay” value is “antagonism”. For the same compound, in series [3], the “antagonist activity, Gi-dissociation assay” value is reported as “no antagonism was observed”. Moreover, the inhibition constant Ki at hM1Dq is 63.1 nM. For the same compound, on hM1Dq (hM1Dq vs hM1), the “higher binding affinity at hM1Dq than at wildtype hM1” value was above 10 fold. Moreover, in series [4] (5 mg/kg i.p.), the “effective free concentration at the peak, brain” value turned out to be 28 nM and the “effective free concentration at the peak, plasma” value is around 54 nM. Besides, in series [4] (5 mg/kg i.p., time course), the brain level reached was 579 ng/mL and 2 μM; the peak plasma level was 1150 ng/mL and 4.12 μM. In addition, the “calculated free brain concentration” value in series [4] (dose 0.3 mg/kg, mice) is reported as around 1.7 nM. Also, the calculated free concentration in series [4] (dose 3 mg/kg, mice) was around 17 nM. Further, in series [4] (setting [6]), the “brain and plasma levels” value was “measurable brain and plasma levels”; the metabolism to clozapine entry was “no evidence of metabolism to clozapine”. This compound also showed a concentration for a half-maximal effect (EC50) on hM4Di [5] of 17.8 nM.
